SMILES strings stand for the structures. Activity calls are given as the source filed them. Cut-off read from the data, not from the text of the source, for most assays here: actives have a measured AC50 and inactives only a lower limit.
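Throughout, for IC50: confirmatory concentration-response retest of ultra-high-throughput screening hits for modulation of myocardial damage; cell death induced by hydrogen peroxide oxidative stress; compound pretreatment for 60 min then peroxide exposure for 2 h; potency is for protecting the cells against peroxide damage rather than for killing them.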

System in the first assay: not listed separately
The assay is described as follows: luciferase reporter signal suppression in cells – H4 neuroglioma cells, luminescence, dose response (AID 1990).
Conditions: not given
The format is functional, cell-based. (In general: In a reporter assay the amount or activity of a reporter protein is the signal.)
As for `COc1ccc(CNCCC(c2ccc(OC(C)C)cc2)c2ccccc2OC)cc1` (stereo not given), the EC50 was 11.4 µM (active).

System in the next assay: not listed separately
As to the kind of experiment: Luminescence Cell-Based Dose Response HTS to Identify Inhibitors of 5'UTR Stem-Loop Driven Prion Protein mRNA Translation in H4 Neuroglioblastoma Cells. [Related pubchem assays: 1827 (Project Summary), 1813 (Primary HTS)]. The class given is functional.
Conditions: not given
In the case of `COc1ccc(CNCCC(c2ccc(OC(C)C)cc2)c2ccccc2OC)cc1` (stereo not given), the EC50 was 113 µM (active).

System in the next assay: not listed separately
As to the kind of experiment: alpha-synuclein stem-loop luciferase translation blockers – H4 neuroglioma cells, luminescence, confirmation (AID 1988).
Conditions: not given
The format is functional, cell-based.
As to `COc1ccc(CNCCC(c2ccc(OC(C)C)cc2)c2ccccc2OC)cc1` (stereo not given), the concentration for a half-maximal effect (EC50) is 8.9 µM (active).

System in the next assay: not listed separately
The assay is described as follows: Luminescence Cell-Based Dose Retest to Confirm Inhibitors of Cancer Stem Cells. [Related pubchem assays (depositor defined):AID2717, AID2721]. Conditions: Homo sapiens. The class given is functional.
For the compound `COc1ccc(CNCCC(c2ccc(OC(C)C)cc2)c2ccccc2OC)cc1` (stereo not given), the AC50 is 5.81 µM (active).

In the next assay the target is T1, Short transient receptor potential channel 4 (Mus musculus, UniProt Q9QUQ5).
T1 sequence (Q9QUQ5 whole entry): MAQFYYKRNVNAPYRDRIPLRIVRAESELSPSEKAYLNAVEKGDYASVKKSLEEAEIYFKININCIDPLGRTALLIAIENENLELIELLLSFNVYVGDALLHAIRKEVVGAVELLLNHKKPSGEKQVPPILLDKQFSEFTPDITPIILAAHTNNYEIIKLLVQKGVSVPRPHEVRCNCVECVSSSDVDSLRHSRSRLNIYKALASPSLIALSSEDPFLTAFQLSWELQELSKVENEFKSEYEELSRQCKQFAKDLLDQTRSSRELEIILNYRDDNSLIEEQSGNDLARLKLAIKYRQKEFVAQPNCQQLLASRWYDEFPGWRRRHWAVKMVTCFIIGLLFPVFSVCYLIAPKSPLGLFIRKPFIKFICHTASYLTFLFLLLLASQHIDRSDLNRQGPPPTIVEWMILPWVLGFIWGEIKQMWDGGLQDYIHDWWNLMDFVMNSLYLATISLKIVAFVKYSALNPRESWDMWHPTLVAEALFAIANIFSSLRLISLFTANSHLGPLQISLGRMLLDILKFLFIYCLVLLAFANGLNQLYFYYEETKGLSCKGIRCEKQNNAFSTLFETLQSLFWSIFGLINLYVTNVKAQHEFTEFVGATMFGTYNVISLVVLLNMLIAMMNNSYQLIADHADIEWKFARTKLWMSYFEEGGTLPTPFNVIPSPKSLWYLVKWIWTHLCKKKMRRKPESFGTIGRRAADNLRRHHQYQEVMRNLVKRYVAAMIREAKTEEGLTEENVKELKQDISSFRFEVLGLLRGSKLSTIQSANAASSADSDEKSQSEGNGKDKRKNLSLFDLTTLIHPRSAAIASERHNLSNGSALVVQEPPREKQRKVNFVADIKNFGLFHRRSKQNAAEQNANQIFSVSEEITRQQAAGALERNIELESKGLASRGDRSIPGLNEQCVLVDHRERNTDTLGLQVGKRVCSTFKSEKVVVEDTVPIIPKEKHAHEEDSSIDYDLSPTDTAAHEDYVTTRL
As to the kind of experiment: calcium entry via TRPC4 opening agents – cell-based, HEK293 TRPC4/mu-opioid, Fluo-4 calcium, dose response (AID 434937). The format is functional.
Conditions: not given
`O=C(NCc1cccnc1)C1CCCN(Cc2cnn(-c3ccccc3)c2-n2cccc2)C1` (stereo not given): the EC50 is 1.68 µM (active).

Regarding `CCN1CCN(c2ccc(S(=O)(=O)N3CCCCC3)cc2NC(=O)c2cccc(Cl)c2)CC1`, the concentration giving a half-maximal response (EC50) was 3.76 µM (active).

On to `COc1ccc(C(CNCC(O)COc2c(C)ccc(C)c2C)N(C)C)cc1` (stereo not given), for which the EC50 is 1.19 µM (active).

For the compound `c1ccc2sc(N3CCNCC3)nc2c1`, the EC50 is 0.473 µM (active).

Regarding `COc1ccc(C(CNC(=O)c2ccc3c(c2)OCCO3)N(C)C)cc1` (stereo not given), the concentration giving a half-maximal response (EC50) was 0.237 µM (active).

The target in another assay is FAD-linked sulfhydryl oxidase ALR (Homo sapiens, UniProt P55789). The assay is described as follows: ALR-catalysed DTT oxidation blockers – biochemical, H2O2 detection, luminescence, cherry-pick, dose response (AID 493248).
FAD-linked sulfhydryl oxidase ALR, sequence (P55789 whole entry): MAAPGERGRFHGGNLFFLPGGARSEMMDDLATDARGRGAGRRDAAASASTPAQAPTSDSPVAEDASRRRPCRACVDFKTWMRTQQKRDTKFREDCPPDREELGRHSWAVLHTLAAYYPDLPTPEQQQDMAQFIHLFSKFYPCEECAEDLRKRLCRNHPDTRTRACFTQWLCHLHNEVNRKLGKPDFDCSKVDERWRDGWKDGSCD
Conditions: not given
For the compound `NC(=O)c1ccc(CSc2nc3ccccc3s2)cc1`, the AC50 is 0.73 µM (active).

`Sc1nnc(-c2ccc3ccccc3n2)o1`: the concentration at half-maximal activity (AC50) was 0.01 µM (active).

Consider `O=S(=O)(c1ccc2ccccc2c1)N1CCN=C1SCc1cccnc1`, for which the AC50 was 0.072 µM (active).

Turning to `COc1cc(NC(=O)C(c2ccccc2)c2ccccc2)c(C(=O)O)cc1OC`, the concentration at half-maximal activity (AC50) was 10.2 µM (active).

As for `c1ccc(CNc2ccc3c(c2)ncn3C2CCCCC2)nc1`, the concentration at half-maximal activity (AC50) is 1.2 µM (active).

Regarding `Cc1nn(-c2ccccc2)c(C)c1-c1cc(C(=O)N/N=C/c2ccc(O)cc2)[nH]n1`, the AC50 is 4.12 µM (active).

For another assay, the system named is INS1. The assay is described as follows: INS-1E survival protection against cytokine death – cell-based, luminescence, retest, dose response (AID 449756).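 Note: cell death triggered by IL-1 beta plus TNF-alpha plus IFN-gamma mixture; protective hits raise ATP signal compared with cytokine alone wells.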 The format is functional. Conditions: Rattus norvegicus.
`COc1ccc(CNCCC(c2ccc(OC(C)C)cc2)c2ccccc2OC)cc1` (stereo not given): the AC50 was 7.26 µM (active).

With `CC(C)Oc1ccc(S(=O)(=O)N2CCCCC2)cc1NC(=O)CN1CCCC1c1cccs1` (stereo not given), the AC50 is 5.76 µM (active).

A further assay relates to H9c2. As to the kind of experiment: cells. To be noted: Rattus norvegicus, H9c2, Myocardium. The format is functional, cell-based.
On to `O=C(Nc1nc(-c2ccccn2)cs1)c1cccc(S(=O)(=O)N2CCOCC2)c1`, for which the IC50 was 21 µM (active).

System in another assay: not listed separately
As to the kind of experiment: reduction of Shn3 3'UTR-driven luciferase in osteoblasts – cell-based, Clone20 osteoblasts, firefly luciferase, cherry-picked, dose response (AID 624132).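 Note: firefly luciferase luminescence from reporter carrying the Shn3 3'UTR in osteoblasts.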 The format is functional.
Conditions: not given
`COc1ccc(CNCCC(c2ccc(OC(C)C)cc2)c2ccccc2OC)cc1` (stereo not given): the AC50 was 3.86 µM (active).

As for `COc1cccc(CN(C)C(=O)c2cccc(S(=O)(=O)N3CCN(Cc4ccccc4)CC3)c2)c1OC`, the AC50 is 4.94 µM (active).

`O=C(Nc1nc(-c2ccccn2)cs1)c1cccc(S(=O)(=O)N2CCOCC2)c1`: the concentration at half-maximal activity (AC50) was 1.52 µM (active).

On to `CC(C)Oc1ccc(S(=O)(=O)N2CCCCC2)cc1NC(=O)CN1CCCC1c1cccs1` (stereo not given), for which the AC50 is 7.88 µM (active).

System in a further assay: not listed separately
As to the kind of experiment: loss of viability in HepG2 cells – cell-based, CellTiter-Glo, cherry-picked, cytotoxicity control for Shn3 inhibitor project, dose response (AID 624134). The class given is functional.
Conditions: not given
For orientation: Cellular ATP, detected with luciferase, serves as a proxy for viable cell number.
Take `COc1ccc(CNCCC(c2ccc(OC(C)C)cc2)c2ccccc2OC)cc1` (stereo not given): the concentration at half-maximal activity (AC50) is 13.3 µM (active).

Take `COc1cccc(CN(C)C(=O)c2cccc(S(=O)(=O)N3CCN(Cc4ccccc4)CC3)c2)c1OC`: the AC50 is 63.3 µM (active).

As to `O=C(Nc1nc(-c2ccccn2)cs1)c1cccc(S(=O)(=O)N2CCOCC2)c1`, the AC50 was 5.28 µM (active).

Consider `CC(C)Oc1ccc(S(=O)(=O)N2CCCCC2)cc1NC(=O)CN1CCCC1c1cccs1` (stereo not given), for which the AC50 is > 70 µM (inactive).

System in a further assay: not listed separately
The assay is described as follows: non-specific 3'UTR reporter inhibition in Clone20-Shn3RL – cell-based, Renilla luciferase, cherry-picked, counter-screen for Shn3 inhibitor project, dose response (AID 624133). The format is functional.
Conditions: not given
In general terms: The purpose of a counterscreen is to sort out artefacts and off-target activity.
Regarding `COc1ccc(CNCCC(c2ccc(OC(C)C)cc2)c2ccccc2OC)cc1` (stereo not given), the AC50 was 20.9 µM (active).

Turning to `COc1cccc(CN(C)C(=O)c2cccc(S(=O)(=O)N3CCN(Cc4ccccc4)CC3)c2)c1OC`, the concentration at half-maximal activity (AC50) was 8.32 µM (active).

On to `O=C(Nc1nc(-c2ccccn2)cs1)c1cccc(S(=O)(=O)N2CCOCC2)c1`, for which the AC50 is 2.89 µM (active).

Consider `CC(C)Oc1ccc(S(=O)(=O)N2CCCCC2)cc1NC(=O)CN1CCCC1c1cccs1` (stereo not given), for which the half-maximal activity concentration (AC50) is 20.6 µM (active).

What is called EC50 is the midpoint of the concentration-response curve. As a reminder, the AC50 is the concentration giving half of the maximal activity seen. A word on the IC50: it is the midpoint of a concentration-inhibition curve.
